For this experiment, the target named is Liver carboxylesterase 1 (Homo sapiens, UniProt P23141). The experiment is described as follows: Inhibition of human CE1.
Liver carboxylesterase 1, sequence (P23141 whole entry): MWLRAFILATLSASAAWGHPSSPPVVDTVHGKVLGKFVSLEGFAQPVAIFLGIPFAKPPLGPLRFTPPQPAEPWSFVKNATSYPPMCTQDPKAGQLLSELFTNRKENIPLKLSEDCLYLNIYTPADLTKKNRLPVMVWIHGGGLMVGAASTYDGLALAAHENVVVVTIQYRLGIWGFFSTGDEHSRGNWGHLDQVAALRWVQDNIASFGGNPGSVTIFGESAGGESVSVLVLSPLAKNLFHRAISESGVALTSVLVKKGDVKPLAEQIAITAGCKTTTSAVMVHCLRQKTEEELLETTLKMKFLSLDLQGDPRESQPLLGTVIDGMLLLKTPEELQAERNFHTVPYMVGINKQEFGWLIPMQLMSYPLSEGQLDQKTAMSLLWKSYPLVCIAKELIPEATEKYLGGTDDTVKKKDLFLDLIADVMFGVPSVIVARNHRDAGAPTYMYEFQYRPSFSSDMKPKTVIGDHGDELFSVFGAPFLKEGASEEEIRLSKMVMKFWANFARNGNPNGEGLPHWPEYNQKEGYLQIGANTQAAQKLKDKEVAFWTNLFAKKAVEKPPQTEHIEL

The term IC50 denotes the concentration at which inhibition is half-maximal. Lower therefore signals inhibition by little substance. In turn, `Cc1ccc(C2=NN(c3ccccc3)C(=O)C23N=C([S@@+](C)[O-])N(C(=O)OC(C)(C)C)[C@]32C(=O)N(Cc3ccccc3)c3ccccc32)cc1` (stereo partly specified) yielded an IC50 of 390 nM.
